Data as given in US6784137B2, “6-aryl-4-aminopicolinates and their use as herbicides” (Dow AgroSciences LLC, priority 2001, dated 2004).

| SMILES | melting point |
| --- | --- |
| COC(=O)c1nc(-c2c(F)cccc2F)cc(NC(C)=O)c1Cl [Compound 55, Methyl 4-acetamido-3-chloro-6-(2,6-difluorophenyl)pyridine-2-carboxylate] | 156 to 157 °C |
| COC(=O)c1nc(-c2nccs2)cc(N)c1Cl [Compound 123, Methyl 4-amino-3-chloro-6-(2-thiazolyl)pyridine-2-carboxylate] | 195 to 197 °C |
| COC(=O)c1nc(-c2cccc(C#N)c2)cc(N)c1Cl [Compound 42, Methyl 4-amino-3-chloro-6-(3-cyanophenyl)pyridine-2-carboxylate] | 139 to 140 °C |
| COC(=O)c1nc(-c2ccco2)c(Cl)c(N)c1Cl [Compound 104, Methyl 4-amino-3,5-dichloro-6-(2-furanyl)pyridine-2-carboxylate] | 116 to 117 °C |
| CC(=O)c1ccc(-c2cc(N)c(Cl)c(C(=O)O)n2)cc1 [Compound 144, 4-Amino-3-chloro-6-(4-acetylphenyl)pyridine-2-carboxylic acid] | 177 to 178 °C |
| COC(=O)c1nc(-c2cc(OC)ccc2OC)cc(NC(C)=O)c1Cl [Compound 81, Methyl 4-acetamido-3-chloro-6-(2,5-dimethoxyphenyl)pyridine-2-carboxylate] | 124 to 125 °C |
| Nc1cc(-c2nc3ccccc3s2)nc(C(=O)O)c1Cl [Compound 230, 4-Amino-3-chloro-6-(2-benzothiazolyl)pyridine-2-carboxylic acid] | 283 °C |
| Nc1cc(-c2ccccc2Cl)nc(C(=O)O)c1Cl [Compound 140, 4-Amino-3-chloro-6-(2-chlorophenyl)pyridine-2-carboxylic acid] | 196 to 197 °C |
| Nc1cc(-c2c(F)cccc2F)nc(C(=O)O)c1Cl [Compound 169, 4-Amino-3-chloro-6-(2,6-difluorophenyl)pyridine-2-carboxylic acid] | 165 to 166 °C |
| COC(=O)c1nc(-c2cnco2)cc(N)c1Cl [Compound 7, methyl 4-amino-3-chloro-6-(5-oxazolyl)pyridine-2-carboxylate] | 166 to 170 °C |
| COC(=O)c1nc(-c2ccc3c(c2Cl)OCO3)cc(N)c1Cl [Compound 73, Methyl 4-amino-3-chloro-6-(2-chloro-3,4-methylenedioxyphenyl)pyridine-2-carboxylate] | 155 to 156 °C |
| COC(=O)c1nc(-c2cc3ccccc3s2)cc(NC(C)=O)c1Cl [Compound 97, Methyl 4-acetamido-3-chloro-6-(2-benzothienyl)pyridine-2-carboxylate] | 184 to 185 °C |
| Nc1cc(-c2cnccn2)nc(C(=O)O)c1Cl [Compound 220, 4-Amino-3-chloro-6-(2-pyrazinyl)pyridine-2-carboxylic acid] | 172 to 173 °C |
| Nc1cc(-c2ccc3c(c2)CCC3)nc(C(=O)O)c1Cl [Compound 188, 4-Amino-3-chloro-6-(5-indanyl)pyridine-2-carboxylic acid] | 204 to 205 °C |
| COC(=O)c1nc(-c2c(C)noc2C)cc(N)c1Cl [Compound 100, Methyl 4-amino-3-chloro-6-(3,5-dimethyl-4-isoxazolyl)pyridine-2-carboxylate] | 143 °C |
| COC(=O)c1nc(-c2cc(Cl)ccc2Cl)cc(NC(C)=O)c1Cl [Compound 57, Methyl 4-acetamido-3-chloro-6-(2,5-dichlorophenyl)pyridine-2-carboxylate] | 143 °C |
| COC(=O)c1nc(-c2nnn(C)n2)cc(N)c1Cl [Compound 11, Methyl 4-amino-3-chloro-6-(2-methyl-2H-tetrazol-5-yl)pyridine-2-carboxylate] | 250 to 252 °C |
| COC(=O)c1nc(-c2ccc(CF)cc2)cc(N)c1Cl [Compound 243, methyl 4-amino-3-chloro-6-(4-fluoromethylphenyl)pyridine-2-carboxylate] | 95 to 97 °C |
| CCOC(=O)c1nc(-c2ccc(Cl)cc2)c(F)c(N)c1Cl [Compound 252, Ethyl 4-amino-3-chloro-5-fluoro-6-(4-chlorophenyl)pyridine-2-carboxylate] | 88 to 89 °C |
| Nc1cc(-c2cc(Cl)ccc2Cl)nc(C(=O)O)c1Cl [Compound 177, 4-Amino-3-chloro-6-(2,5-dichlorophenyl)pyridine-2-carboxylic acid] | 213 to 215 °C |
| Nc1cc(-c2ccsc2)nc(C(=O)O)c1Cl [Compound 216, 4-Amino-3-chloro-6-(3-thienyl)pyridine-2-carboxylic acid] | 184 °C |
| Nc1c(Cl)c(C(=O)O)nc(-c2ccccc2)c1Cl [Compound 133, 4-Amino-3,5-dichloro-6-(phenyl)pyridine-2-carboxylic acid] | 135 °C |
| Nc1c(F)c(-c2ccc(Cl)nc2)nc(C(=O)O)c1Cl [Compound 221, 4-Amino-3-chloro-5-fluoro-6-(6-chloro-3-pyridinyl)pyridine-2-carboxylic acid] | 125 °C (dec.) |
| Nc1cc(-c2ccc(CO)cc2)nc(C(=O)O)c1Cl [Compound 159, 4-Amino-3-chloro-6-(4-hydroxymethylphenyl)pyridine-2-carboxylic acid] | 181 to 182 °C |

| SMILES | melting point |
| --- | --- |
| CC(C)c1ccc(-c2cc(N)c(Cl)c(C(=O)O)n2)cc1 [Compound 147, 4-Amino-3-chloro-6-(4-isopropylphenyl)pyridine-2-carboxylic acid] | 142 to 143 °C |
| Nc1cc(-c2cccc(C(F)(F)F)c2)nc(C(=O)O)c1Cl [Compound 157, 4-Amino-3-chloro-6-[3-(trifluoromethyl)phenyl]pyridine-2-carboxylic acid] | 175 to 176 °C |
| COC(=O)c1nc(-c2ccc(OC)cc2)c(Cl)c(N)c1Cl [Compound 15, Methyl 4-amino-3,5-dichloro-6-(4-methoxyphenyl)pyridine-2-carboxylate] | 107 to 109 °C |
| COC(=O)c1nc(-c2cc(Cl)c(C)cc2F)cc(NC(C)=O)c1Cl [Compound 78, Methyl 4-acetamido-3-chloro-6-(5-chloro-2-fluoro-4-methylphenyl)pyridine-2-carboxylate] | 187 to 195 °C |
| Nc1cc(-c2ccccc2)nc(C(=O)O)c1Cl [Compound 135, 4-Amino-3-chloro-6-(phenyl)pyridine-2-carboxylic acid] | 180 to 181 °C (dec.) |
| Nc1c(Cl)c(C(=O)O)nc(-c2cccs2)c1Cl [Compound 208, 4-Amino-3,5-dichloro-6-(2-thienyl)pyridine-2-carboxylic acid] | 144 °C |
| COC(=O)c1nc(-c2ccsc2)cc(N)c1Cl [Compound 122, Methyl 4-amino-3-chloro-6-(3-thienyl)pyridine-2-carboxylate] | 129 °C |
| Nc1cc(-c2nc3ccccc3o2)nc(C(=O)O)c1Cl [Compound 226, 4-Amino-3-chloro-6-(2-benzoxazolyl)pyridine-2-carboxylic acid] | 262 °C (dec.) |
| Cc1ccc(-c2cc(N)c(Cl)c(C(=O)O)n2)cc1Cl [Compound 164, 4-Amino-3-chloro-6-(3-chloro-4-methylphenyl)pyridine-2-carboxylic acid] | 188 °C |
| COCc1cc(-c2cc(N)c(Cl)c(C(=O)O)n2)ccc1Cl [Compound 195, 4-Amino-3-chloro-6-(4-chloro-3-methoxymethylphenyl)pyridine-2-carboxylic acid] | 162 °C |
| COC(=O)c1nc(-c2ccccc2F)cc(N)c1Cl [Compound 37, Methyl 4-amino-3-chloro-6-(2-fluorophenyl)pyridine-2-carboxylate] | 121 to 122 °C |
| COC(=O)c1nc(-c2ccccc2Cl)cc(N)c1Cl [Compound 26, Methyl 4-amino-3-chloro-6-(2-chlorophenyl)pyridine-2-carboxylate] | 115 to 117 °C |
| COCc1cc(-c2cc(N)c(Cl)c(C(=O)OC)n2)ccc1Cl [Compound 71, Methyl 4-amino-3-chloro-6-(4-chloro-3-methoxymethylphenyl)pyridine-2-carboxylate] | 73 to 74 °C |
| COC(=O)c1nc(-c2ccc(CO)cc2)cc(N)c1Cl [Compound 242, Methyl 4-amino-3-chloro-6-(4-hydroxymethylphenyl)pyridine-2-carboxylate] | 138 to 139 °C |
| COC(=O)c1nc(-c2ccc(Cl)cc2OC)cc(NC(C)=O)c1Cl [Compound 66, Methyl 4-acetamido-3-chloro-6-(4-chloro-2-methoxyphenyl)pyridine-2-carboxylate] | 176 to 178 °C |
| Nc1c(Cl)c(C(=O)O)nc(-c2cncs2)c1Cl [Compound 241, 4-Amino-3,5-dichloro-6-(5-thiazolyl)pyridine-2-carboxylic acid] | 175 to 177 °C |
| Cn1nccc1-c1cc(N)c(Cl)c(C(=O)O)n1 [Compound 223, 4-Amino-3-chloro-6-(1-methyl-1H-pyrazol-5-yl)pyridine-2-carboxylic acid] | 230 to 232 °C |
| COC(=O)c1nc(-c2ccsc2)cc(NC(C)=O)c1Cl [Compound 101, Methyl 4-acetamido-3-chloro-6-(3-thienyl)pyridine-2-carboxylate] | 133 °C |
| COC(=O)c1nc(-c2cc3ccccc3s2)cc(N)c1Cl [Compound 125, Methyl 4-amino-3-chloro-6-(2-benzothienyl)pyridine-2-carboxylate] | 177 to 178 °C |
| Nc1cc(-c2cc(F)cc(F)c2)nc(C(=O)O)c1Cl [Compound 167, 4-Amino-3-chloro-6-(3,5-difluorophenyl)pyridine-2-carboxylic acid] | 182 to 183 °C |
| COC(=O)c1nc(-c2cccs2)cc(N)c1Cl [Compound 106, Methyl 4-amino-3-chloro-6-(2-thienyl)pyridine-2-carboxylate] | 138 to 139 °C |
| COC(=O)c1nc(-c2ccc(Cl)c(F)c2)cc(N)c1Cl [Compound 61, Methyl 4-amino-3-chloro-6-(4-chloro-3-fluorophenyl)pyridine-2-carboxylate] | 149 to 151 °C |
| COc1ccc(-c2cc(N)c(Cl)c(C(=O)O)n2)cc1OC [Compound 185, 4-Amino-3-chloro-6-(3,4-dimethoxyphenyl)pyridine-2-carboxylic acid] | 182 to 183 °C |
